Drawing on patent publication US20020031509A1, “Pharmaceutical composition and method for its manufacture” (priority 1999, published 2002), this text covers antibacterial effect for one compound.

This test has as its system P. aeruginosa. Briefly: Experiment 2 screening for antibiotic effect, P. aeruginosa. It counts as cell-based, Pseudomonas aeruginosa. The settings on record: 24 h post inoculation. How it is done:
The second experiment consisted of a screening for antibiotic effect of individual and combined substances. The materials that were used were:
The method involved the use of a microtiter (ELISA) plate (12×8 wells, i.e 96 wells in total, obtained from NUNC) with serial dilutions of venoms and bacteria at two concentrations.
The incubation time was 24 hours. OD was monitored at 650 nm every hour the first 7-8 hours, and then at 20 hours and 24 hours post inoculation. Each well was given 200 μl of diluted venom plus bacteria.
Three-dimensional diagrams shown as FIG. 3 to 11 summarize the above results. Observe that in each diagram serge 1 (Z axis) is substance BF, serie 2 is NK, 3 is OH, 4 is BA, 5 is TA, 6 is OH+BA, 7 is OH+TA and serie 8 is reference antibiotic. On the X-axis 1-5 is concentration of substance: 500, 250, 125, 62.5 och 31.2 mikrog/ml for substances (N.B. OH+BA and OH+TA have the double concentrations, i.e. the concentration is 1000, 500, 250, 125 and 62.5 ), and 100, 50, 25, 12.5, 6.25 mikrog/ml for reference antibiotic. The name on the diagrams is the tested bacteria strain (initials only given) and time is 7 hours after incubation start at which the substance was added. The combined OH+BA and OH+TA were obtained by mixing the single venoms in the same proportions.

Each structure is given as a SMILES string.

`NC[C@H]1O[C@H](O[C@H]2[C@H](O)[C@@H](O[C@H]3O[C@H](CO)[C@@H](O)[C@H](N)[C@H]3O)[C@H](N)C[C@@H]2N)[C@H](O)[C@@H](O)[C@@H]1O` [Kanamycin]: the antibacterial effect entry is “no effect”.
